Molecules are shown by their SMILES. Starred links: 1 amine or outer side, 2 acyl side, 3 side chain; linkers in the order of their positions; H or OH if unused. Positions of bridges follow the written chain, without caps; N, C: chain ends. Non-standard residues stand in square brackets, D forms with d. Residues, ends and D or L forms follow the SMILES beside them. *: point of attachment. Trp(7-(3-AcNH-Ph)) = CC(=O)Nc1cccc(-c2cccc3c(C[C@H](N)C(=O)O)c[nH]c23)c1; X68 = COCCOCCOCCOCCOCCOCCC(=O)N(CCCC[C@@H](N[*:1])C(=O)[*:2])C(C)=O; Me3N+(CH2)2O(CH2)2O(CH2)2CO = C[N+](C)(C)CCOCCOCCC(=O)*; Trp(7-Me) = Cc1cccc2c(C[C@H](N)C(=O)O)c[nH]c12; 3Pal(5-Me) = Cc1cncc(C[C@H](N)C(=O)O)c1; 2Nal = N[C@@H](Cc1ccc2ccccc2c1)C(=O)O; AEF = NCCOc1ccc(C[C@H](N)C(=O)O)cc1; dNMeY = CN[C@H](Cc1ccc(O)cc1)C(=O)O; 3Pal = N[C@@H](Cc1cccnc1)C(=O)O; Lys(Me) = CNCCCC[C@H](N)C(=O)O; Pen = CC(C)(S)[C@H](N)C(=O)O; αMeK = C[C@](N)(CCCCN)C(=O)O; X84 = CN(CCC[N+](C)(C)C)CC*; Thp = NC1(C(=O)O)CCOCC1; X17 = C[N+]1(CC*)CCOCC1; X3 = C[N+](C)(C)CCCCC*; Sar = CNCC(=O)O

This series in a line: Exposed Polar Surface Area (EPSA). It is filed as physicochemical. The settings on record: SFC on Chirex 3014 column; sample 1 mM DMSO stock; read-out: EPSA. In outline: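 Polarity measured by SFC on a Chirex 3014 column (35 °C, 4 mL/min) with methanol/ammonium formate in CO2 as gradient eluent. Retention times were normalised to EPSA (Å^2) against eight reference compounds.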
Regarding `Cc1cccc2c(C[C@@H]3NC(=O)[C@H]([C@@H](C)O)NC(=O)[C@H](CC(N)=O)NC(=O)[C@@H](NC(=O)CCOCCOCC[N+](C)(C)C)C(C)(C)SSC(C)(C)[C@@H](C(=O)N[C@@H](Cc4ccc(OCCN)cc4)C(=O)N[C@@H](Cc4ccc5ccccc5c4)C(=O)NC4(C(=O)N[C@@H](CCC(=O)N(C)C)C(=O)N[C@@H](CC(N)=O)C(=O)N[C@@H](Cc5cccnc5)C(=O)N(C)CC(N)=O)CCOCC4)NC(=O)[C@H](CCC(=O)N(C)C)NC3=O)c[nH]c12` [compound 137, cPEG3aCO-Pen(3)-N-T-7MeW-Q(N(Me)2)-Pen(3)-AEF-2Nal-THP-Q(N(Me)2)-N-3Pya-Sar-CONH2] ({Me3N+(CH2)2O(CH2)2O(CH2)2CO}-[Pen]NT[Trp(7-Me)]E(NMe2)[Pen][AEF][2Nal][Thp]E(NMe2)N[3Pal][Sar]-NH2; disulfide 1-6), the EPSA was determined as 160 A^2.
For `CC(=O)NCCCC[C@@H]1NC(=O)[C@H](Cc2c[nH]c3c(C)cccc23)NC(=O)[C@H]([C@@H](C)O)NC(=O)[C@H](CC(N)=O)NC(=O)[C@@H](NC(C)=O)C(C)(C)SSC(C)(C)[C@@H](C(=O)N[C@@H](Cc2ccc(OCCN)cc2)C(=O)N[C@@H](Cc2ccc3ccccc3c2)C(=O)N[C@@](C)(CCCCN)C(=O)N[C@H](CCCCNC(C)=O)C(=O)N[C@@H](CC(N)=O)C(=O)N[C@H](CC(C)C)C(=O)N(C)[C@H](Cc2ccc(O)cc2)C(N)=O)NC1=O` (racemic) [compound 6, MeCO-Pen(3)-N-T-7MeW-K(Ac)-Pen(3)-AEF-2Nal-aMeK-k(Ac)-N-dL-NMeDTyr-CONH2], the EPSA worked out at 170 A^2.
As for `CC(=O)NCCCC[C@@H]1NC(=O)[C@H](Cc2c[nH]c3c(-c4cccc(NC(C)=O)c4)cccc23)NC(=O)[C@H]([C@@H](C)O)NC(=O)[C@H](CC(N)=O)NC(=O)[C@@H](NC(=O)[C@@H](CCCNC(=N)N)NC(=O)CCOCCOCC[N+](C)(C)C)C(C)(C)SSC(C)(C)[C@@H](C(=O)N[C@@H](Cc2ccc(OCCN)cc2)C(=O)N[C@@H](Cc2ccc3ccccc3c2)C(=O)NC2(C(=O)N[C@@H](CCC(=O)O)C(=O)N[C@@H](CC(N)=O)C(=O)N[C@@H](Cc3cncc(C)c3)C(=O)N(C)CC(N)=O)CCOCC2)NC1=O` [compound 536, cPEG3aCO-r-Pen(3)-N-T-7(3NAcPh)W-K(Ac)-Pen(3)-AEF-2Nal-THP-E-N-5MePyridinAla-Sar-CONH2] ({Me3N+(CH2)2O(CH2)2O(CH2)2CO}-[dR][Pen]NT[Trp(7-(3-AcNH-Ph))]K(Ac)[Pen][AEF][2Nal][Thp]EN[3Pal(5-Me)][Sar]-NH2; disulfide 2-7), the EPSA was 210 A^2.
The result for `CC(=O)N(C)CCCC[C@@H]1NC(=O)[C@H](Cc2c[nH]c3c(C)cccc23)NC(=O)[C@H]([C@@H](C)O)NC(=O)[C@H](CC(=O)N(C)C)NC(=O)[C@@H](NC(=O)CCOCCOCC[N+](C)(C)C)C(C)(C)SSC(C)(C)[C@@H](C(=O)N[C@@H](Cc2ccc(OCCN(C)CCC[N+](C)(C)C)cc2)C(=O)N[C@@H](Cc2ccc3ccccc3c2)C(=O)NC2(C(=O)N[C@@H](CCCCN(C)C(C)=O)C(=O)N[C@@H](CC(N)=O)C(=O)N[C@@H](Cc3cccnc3)C(=O)N(C)CC(=O)N(C)C)CCOCC2)NC1=O` [compound 234, cPEG3aCO-Pen(3)-N(N(Me)2)-T-7MeW-K(NMeAc)-Pen(3)-AEF(MePrpa)-2Nal-THP-K(NMeAc)-N-3Pya-Sar-CON(Me)2] ({Me3N+(CH2)2O(CH2)2O(CH2)2CO}-[Pen]D(NMe2)T[Trp(7-Me)][Lys(Me)](Ac)[Pen]Y(X84)[2Nal][Thp][Lys(Me)](Ac)N[3Pal][Sar]-NMe2; disulfide 1-6) reads 141 A^2.
To `CC(=O)NCCCC[C@@H]1NC(=O)[C@H](Cc2c[nH]c3c(C)cccc23)NC(=O)[C@H]([C@@H](C)O)NC(=O)[C@H](CC(N)=O)NC(=O)[C@@H](NC(C)=O)C(C)(C)SSC(C)(C)[C@@H](C(=O)N[C@@H](Cc2ccc(OCCN)cc2)C(=O)N[C@@H](Cc2ccc3ccccc3c2)C(=O)N[C@@](C)(CCCCN)C(=O)N[C@@H](CCCCNC(C)=O)C(=O)N[C@@H](CC(N)=O)C(=O)N[C@@H](Cc2ccccc2)C(=O)N(C)[C@H](Cc2ccc(O)cc2)C(N)=O)NC1=O` [compound 7, MeCO-Pen(3)-N-T-7MeW-K(Ac)-Pen(3)-AEF-2Nal-aMeK-K(Ac)-N-F-NMeDTyr-CONH2] (Ac-[Pen]NT[Trp(7-Me)]K(Ac)[Pen][AEF][2Nal][αMeK]K(Ac)NF[dNMeY]-NH2; disulfide 1-6) belongs 170 A^2; to `CC(=O)NCCCC[C@@H]1NC(=O)[C@H](Cc2c[nH]c3c(C)cccc23)NC(=O)[C@H]([C@@H](C)O)NC(=O)[C@H](CC(=O)N(C)C)NC(=O)[C@@H](NC(C)=O)C(C)(C)SSC(C)(C)[C@@H](C(=O)N[C@@H](Cc2ccc(OCCN)cc2)C(=O)N[C@@H](Cc2ccc3ccccc3c2)C(=O)NC2(C(=O)N[C@@H](CCCCNC(C)=O)C(=O)N[C@@H](CC(N)=O)C(=O)N[C@@H](Cc3cccnc3)C(=O)N(C)CC(N)=O)CCOCC2)NC1=O` [compound 279, MeCO-Pen(3)-N(N(Me)2)-T-7MeW-K(Ac)-Pen(3)-AEF-2Nal-THP-K(Ac)-N-3Pya-Sar-CONH2] (Ac-[Pen]D(NMe2)T[Trp(7-Me)]K(Ac)[Pen][AEF][2Nal][Thp]K(Ac)N[3Pal][Sar]-NH2; disulfide 1-6), 163 A^2.
To `CC(=O)N(C)CCCC[C@@H]1NC(=O)[C@H](Cc2c[nH]c3c(C)cccc23)NC(=O)[C@H]([C@@H](C)O)NC(=O)[C@H](CCCCNC(=O)CCOCCOCC[N+](C)(C)C)NC(=O)[C@@H](NC(=O)CCOCCOCC[N+](C)(C)C)C(C)(C)SSC(C)(C)[C@@H](C(=O)N[C@@H](Cc2ccc(OCCCCC[N+](C)(C)C)cc2)C(=O)N[C@@H](Cc2ccc3ccccc3c2)C(=O)NC2(C(=O)N[C@@H](CCCCN(C)C(C)=O)C(=O)N[C@@H](CC(N)=O)C(=O)N[C@@H](Cc3cccnc3)C(=O)N(C)CC(=O)N(C)C)CCOCC2)NC1=O` [compound 393, cPEG3aCO-Pen(3)-K(cPEG3a)-T-7MeW-K(NMeAc)-Pen(3)-TMAPF-2Nal-THP-K(NMeAc)-N-3Pya-Sar-CON(Me)2] ({Me3N+(CH2)2O(CH2)2O(CH2)2CO}-[Pen]K(Me3N+(CH2)2O(CH2)2O(CH2)2CO)T[Trp(7-Me)][Lys(Me)](Ac)[Pen]Y(X3)[2Nal][Thp][Lys(Me)](Ac)N[3Pal][Sar]-NMe2; disulfide 1-6) belongs 144 A^2.
For the compound `CCCCCCCCCCCC(=O)N[C@@H](CCC(=O)NCCOCCOCC(=O)NCCOCCOCC(=O)NCCCC[C@@H]1NC(=O)[C@H](Cc2c[nH]c3c(C)cccc23)NC(=O)[C@H]([C@@H](C)O)NC(=O)[C@H](CC(=O)N(C)C)NC(=O)[C@@H](NC(=O)C(COCCOCC[N+](C)(C)C)NC(=O)COCCOCCNC(=O)COCCOCCNC(=O)CC[C@H](NC(=O)CCCCCCCCCCC)C(=O)O)C(C)(C)SSC(C)(C)[C@@H](C(=O)N[C@@H](Cc2ccc(OCCOCCOCC[N+](C)(C)C)cc2)C(=O)N[C@@H](Cc2ccc3ccccc3c2)C(=O)NC2(C(=O)N[C@@H](CCCCN(C)C(C)=O)C(=O)N[C@@H](CC(N)=O)C(=O)N[C@@H](Cc3cccnc3)C(=O)N(C)CC(=O)N(C)C)CCOCC2)NC1=O)C(=O)O` (relative stereo) [compound 368, C12gEPEG2PEG2CO-APEG2Ser(S*)-Pen(3)-N(N(Me)2)-T-7MeW-K(PEG2PEG2gEC12)-Pen(3)-APEG3F-2Nal-THP-K(NMeAc)-N-3Pya-Sar-CON(Me)2], the EPSA came out at 166 A^2.
The result for `CC(=O)NCCCC[C@@H]1NC(=O)[C@H](Cc2c[nH]c3c(C)cccc23)NC(=O)[C@H]([C@@H](C)O)NC(=O)[C@H](CC(N)=O)NC(=O)[C@@H](NC(C)=O)C(C)(C)SSC(C)(C)[C@@H](C(=O)N[C@@H](Cc2ccc(OCC[N+]3(C)CCOCC3)cc2)C(=O)N[C@@H](Cc2ccc3ccccc3c2)C(=O)NC2(C(=O)N[C@@H](CCC(=O)O)C(=O)N[C@@H](CC(N)=O)C(=O)N[C@@H](Cc3cccnc3)C(=O)N(C)CC(N)=O)CCOCC2)NC1=O` [compound 431] (Ac-[Pen]NT[Trp(7-Me)]K(Ac)[Pen]Y(X17)[2Nal][Thp]EN[3Pal][Sar]-NH2; disulfide 1-6 (inferred)) reads 174 A^2.
To `CC(=O)N(C)CCCC[C@@H]1NC(=O)[C@H](Cc2c[nH]c3c(C)cccc23)NC(=O)[C@H]([C@@H](C)O)NC(=O)[C@H](CC(C)C)NC(=O)[C@@H](NC(=O)CCOCCOCC[N+](C)(C)C)C(C)(C)SSC(C)(C)[C@@H](C(=O)N[C@@H](Cc2ccc(OCCCCC[N+](C)(C)C)cc2)C(=O)N[C@@H](Cc2ccc3ccccc3c2)C(=O)NC2(C(=O)N[C@@H](CCCCN(C)C(C)=O)C(=O)N[C@@H](CC(N)=O)C(=O)N[C@@H](Cc3cccnc3)C(=O)N(C)CC(=O)N(C)C)CCOCC2)NC1=O` [compound 495, cPEG3aCO-Pen(3)-1-T-7MeW-K(NMeAc)-Pen(3)-TMAPF-2Nal-THP-K(NMeAc)-N-3Pya-Sar-CON(Me)2] ({Me3N+(CH2)2O(CH2)2O(CH2)2CO}-[Pen]LT[Trp(7-Me)][Lys(Me)](Ac)[Pen]Y(X3)[2Nal][Thp][Lys(Me)](Ac)N[3Pal][Sar]-NMe2; disulfide 1-6) belongs 160 A^2; to `COCCOCCOCCOCCOCCOCCC(=O)N(CCCC[C@@H](NC(=O)C1(NC(=O)[C@H](Cc2ccc3ccccc3c2)NC(=O)[C@H](Cc2ccc(OCCN)cc2)NC(=O)[C@H]2NC(=O)[C@H](CCCCNC(C)=O)NC(=O)[C@H](Cc3c[nH]c4c(C)cccc34)NC(=O)[C@H]([C@@H](C)O)NC(=O)[C@H](CC(N)=O)NC(=O)[C@@H](NC(C)=O)C(C)(C)SSC2(C)C)CCOCC1)C(=O)N[C@@H](CC(N)=O)C(=O)N[C@@H](Cc1cccnc1)C(=O)N(C)CC(N)=O)C(C)=O` [compound 123] (Ac-[Pen]NT[Trp(7-Me)]K(Ac)[Pen][AEF][2Nal][Thp][X68]N[3Pal][Sar]-NH2; disulfide 1-6), 156 A^2; to `CC(=O)NCCCC[C@@H]1NC(=O)[C@H](Cc2c[nH]c3c(C)cccc23)NC(=O)[C@H]([C@@H](C)O)NC(=O)[C@H](CC(N)=O)NC(=O)[C@@H](NC(=O)CCOCCOCC[N+](C)(C)C)C(C)(C)SSC(C)(C)[C@@H](C(=O)N[C@@H](Cc2ccc(OCCCCC[N+](C)(C)C)cc2)C(=O)N[C@@H](Cc2ccc3ccccc3c2)C(=O)NC2(C(=O)N[C@@H](CCC(=O)O)C(=O)N[C@@H](CC(N)=O)C(=O)N[C@@H](Cc3cncc(C)c3)C(=O)N(C)CC(N)=O)CCOCC2)NC1=O` [compound 505, cPEG3aCO-Pen(3)-N-T-7MeW-K(Ac)-Pen(3)-TMAPF-2Nal-THP-E-N-5MePyridinAla-Sar-CONH2], 179 A^2.
